Earlier results as cited in patent publication US8293243B2 (priority 2004, dated 2012).
*1 amine or outer side, *2 acyl side, *3 side chain or, on linkers, in order; H or OH if unused. Where a SMILES comes first, the peptide text is derived from it. Bridges are numbered along the chain shown (N, C = ends). Roman numbers before positions name the chains, in order. [ ]: non-standard residue; d: D form. Actinocin(9to1) = Cc1c2oc3c(C)ccc(C(=O)[*:1])c3nc-2c(C(=O)[*:2])c(N)c1=O; NMeV = CN[C@H](C(=O)O)C(C)C; Sar = CNCC(=O)O

Conditions: in vivo; cited from earlier work

Cc1c2oc3c(C)ccc(C(=O)N[C@@H]4C(=O)N[C@H](C(C)C)C(=O)N5CCC[C@H]5C(=O)N(C)CC(=O)N(C)[C@@H](C(C)C)C(=O)O[C@@H]4C)c3nc-2c(C(=O)N[C@@H]2C(=O)N[C@H](C(C)C)C(=O)N3CCC[C@H]3C(=O)N(C)CC(=O)N(C)[C@@H](C(C)C)C(=O)O[C@@H]2C)c(N)c1=O [Actinomycin D] (I: T[dV]P[Sar][NMeV] / II: T[dV]P[Sar][NMeV]; ester I:1-I:C, II:1-II:C; linker I:N-II:N via Actinocin(9to1))
passage of the blood-brain barrier: does not pass the blood-brain barrier
